Series [1] relates to HeLaS3 cells. Briefly: SRB antiproliferation assay, HeLaS3. Conditions: read-out: IC50 HeLaS3, 72 h, mean ± SD of three experiments.
Series [2] has as its system KB-vin cells. The series is described as follows: ROS generation, KB-vin. The format is cell-based, human. Conditions: 24 h treatment.
The test system of series [3] is KB-vin cells. Briefly: Mitochondrial membrane potential assay, KB-vin. Conditions: 24 h treatment. The format is cell-based, human.
Series [4] deals with HeLaS3 cells. The series is described as follows: Mitochondrial membrane potential assay, HeLaS3. The series is classed as cell-based, human. Conditions: HeLaS3, 24 h treatment.
The test system of series [5] is HeLaS3 cells. Briefly: ROS generation, HeLaS3. The series is classed as cell-based, human. Conditions: HeLaS3, 24 h treatment.
Series [6] concerns the target T1, NQO1 (Homo sapiens, UniProt P15559). Briefly: NQO1 activity assay kit in treated HeLaS3 cells. Conditions: HeLaS3, 24 h, serial concentrations.
For series [7], the target named is T1, NQO1. Briefly: NQO1 activity assay kit in treated KB-vin cells. Conditions: 24 h, serial concentrations.
Series [8] concerns HeLaS3 cells. Briefly: MTT proliferation assay, HeLaS3. The series is classed as cell-based, human. Conditions: increasing doses, 72 h. For orientation: Formazan colour is commonly taken as a measure of viable cells.
Series [9] has as its target T1, NQO1. The series is described as follows: NQO1 inhibitory kinetic assay. The format is biochemical.
Series [10] has as its system HeLaS3 cells. The series is described as follows: Western blot of apoptotic proteins. Conditions: HeLaS3, 72 h. The format is cell-based, human. (A western blot detects proteins with antibodies after separation by electrophoresis.)
The test system of series [11] is normal endometrial epithelial cells (EECs). The series is described as follows: MTT proliferation assay, normal endometrial epithelial cells. The series is classed as cell-based. Conditions: increasing doses, 72 h.
Series [12] has as its system HeLaS3 cells. The series is described as follows: NQO1-dependent cytotoxicity. Conditions: HeLaS3, SRB, 72 h.
Series [13] relates to KB-vin cells. Briefly: NQO1-dependent cytotoxicity. Conditions: SRB, 72 h.

Six molecules from PMC6421848 (European journal of medicinal chemistry, 2018) can be followed below.

T1 sequence (P15559 whole entry): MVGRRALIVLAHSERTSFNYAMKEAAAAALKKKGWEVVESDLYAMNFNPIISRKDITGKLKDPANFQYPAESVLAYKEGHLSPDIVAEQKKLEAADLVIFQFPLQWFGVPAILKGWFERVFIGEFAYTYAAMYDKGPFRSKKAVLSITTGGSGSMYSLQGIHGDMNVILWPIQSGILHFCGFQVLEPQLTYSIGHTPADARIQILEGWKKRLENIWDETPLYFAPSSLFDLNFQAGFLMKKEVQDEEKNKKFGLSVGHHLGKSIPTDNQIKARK

As usually defined, the IC50 is the midpoint of a concentration-inhibition curve. Regarding “6-((4-([1,4’ -Bipiperidin]-1’ -yl)phenyl)amino)quinoline-5,8-dione [Compound 6f]”, in the series with HeLaS3 cells [1], the IC50 was 5.16 µM.
Same read-out and setting: as for “7-((4-([1,4’ -Bipiperidin]-1’ -yl)phenyl)amino)quinoline-5,8-dione [Compound 7f]”, the figure is 5.07 ± 0.1 µM.
Consider `CN1CCN(c2ccc(NC3=CC(=O)c4ncccc4C3=O)cc2)CC1` [Compound 6d, 6-((4-(4-Methylpiperazin-1-yl)phenyl)amino)quinoline-5,8-dione], for which the ROS production entry in the series on KB-vin cells [2] and with HeLaS3 cells [5] was “increased dose-dependently” throughout. Moreover, the mitochondrial membrane potential entry with KB-vin cells [3] and in the series on HeLaS3 cells [4] was “significantly decreased in a dose-dependent manner” in each case.
For the molecule `COC(=O)/C=C/c1cccc(CNC2=CC(=O)c3ncccc3C2=O)c1` [Compound 6h, (E)-Methyl 3-(3-(((5,8-dioxo-5,8-dihydroquinolin-6-yl)amino)methyl)phenyl)acrylate], the “NQO1 activity after treatment” value on NQO1 [6] and at NQO1 [7] was “inhibited dose-dependently” in each case. Besides, the ROS production entry in the series with KB-vin cells [2] and in the series on HeLaS3 cells [5] was “increased dose-dependently” each time. Further, the mitochondrial membrane potential result with KB-vin cells [3] and with HeLaS3 cells [4] was “significantly decreased in a dose-dependent manner” each time.
For `O=C1C=C(NCCc2c[nH]c3ccccc23)C(=O)c2ncccc21` [Compound 7a, 7-((2-(1H-Indol-3-yl)ethyl)amino)quinoline-5,8-dione], the “NQO1 activity after treatment” value on NQO1 [6] and at NQO1 [7] was “inhibited dose-dependently” throughout. For the same molecule, the ROS production result in the series with KB-vin cells [2] and in the series on HeLaS3 cells [5] was “increased dose-dependently” in each case. Besides, the mitochondrial membrane potential entry in the series with KB-vin cells [3] and in the series with HeLaS3 cells [4] was “significantly decreased in a dose-dependent manner” each time.
`CN1CCN(c2ccc(NC3=CC(=O)c4cccnc4C3=O)cc2)CC1` [Compound 7d, 7-((4-(4-Methylpiperazin-1-yl)phenyl)amino)quinoline-5,8-dione]: the “NQO1 activity after treatment” value at NQO1 [6] and at NQO1 [7] was “inhibited dose-dependently” throughout. Further, the ROS production entry in the series with KB-vin cells [2] and in the series on HeLaS3 cells [5] was “increased dose-dependently” each time. Moreover, in the series with HeLaS3 cells [8], the “effect on HeLaS3 cells, same treatment regimen” value is given as “induced major HeLaS3 cell death”. Further, the “mode of NQO1 inhibition” value on NQO1 [9] (Lineweaver-Burk plots) was “competitive inhibitors”. For the same molecule, the “maximum rate (Vmax)” value on NQO1 [9] (remained the same as inhibitor concentration increased) was 11.03 ± 1.5 nmol/mg protein/20s. In the series on HeLaS3 cells [10], the “cleavage of caspase-3” value was “induced more cleavage of caspase-3 than the control group”. In the series with HeLaS3 cells [10] (dose-dependent), the “levels of anti-apoptotic Bcl-2 expression” value is on record as “reduced”. The “relative levels of pro-apoptotic Bax expression” value in the series on HeLaS3 cells [10] (dose-dependent) is listed as “dramatically increased”. Moreover, in series [11], the “effect on survival of non-tumor EECs” value is recorded as “no significant effect”. For the same molecule, the “cell viability of compound-treated cells on addition of DIC and NAc” value in the series with HeLaS3 cells [12] and with KB-vin cells [13] was “significantly increased” in each case. Besides, the mitochondrial membrane potential result in the series on KB-vin cells [3] and in the series with HeLaS3 cells [4] was “significantly decreased in a dose-dependent manner” in each case.
